The record followed here is US20080139564A1, “SUBSTITUTED PHENYL PROPYL AMINES AS HISTAMINE H3 RECEPTOR AND SEROTONIN TRANSPORTER MODULATORS” (priority 2006, published 2008).

For one assay, the target named is T1, Rat SERT (Rattus norvegicus, UniProt P31652).
T1 construct: A rat brain without cerebellum (Zivic Laboratories, Inc.—Pittsburgh, Pa.) was homogenized; tissue Zivic Laboratories, Inc; host or cells: rat brain without cerebellum
Put plainly: Rat brain SERT binding ([3H]-Citalopram displacement, rat brain membranes). Conditions: 0.6 nM [3H]-Citalopram, 60 min at 25° C. The protocol: A rat brain without cerebellum (Zivic Laboratories, Inc.—Pittsburgh, Pa.) was homogenized in a 52.6 mM Tris pH 8/126.4 mM NaCl/5.26 mM KCl mixture and centrifuged at 1,000 rpm for 5 min. The supernatant was removed and re-centrifuged at 15,000 rpm for 30 min. Pellets were re-homogenized in a 52.6 mM Tris pH8/126.4 mM NaCl/5.26 mM KCl mixture. Membranes were incubated with 0.6 nM [^3H]-Citalopram plus/minus test compounds for 60 min at 25° C. and harvested by rapid filtration over GF/C glass fiber filters (pretreated with 0.3% polyethylenimine) followed by four washes with ice-cold buffer. Nonspecific binding was defined in the presence of 100 μM fluoxetine.

In assay [1] the target is T2, human H3 receptor (Homo sapiens, UniProt Q9Y5N1).
T2 construct: expressed in transfected cells
The experiment in a line: H3 receptor binding (N-[3H]-α-methylhistamine displacement, SK-N-MC cell membranes). As to conditions: 0.8 nM N-[3H]-α-methylhistamine, 60 min at 25° C. The protocol:
Binding of compounds to the cloned human H3 receptor, stably expressed in SK-N-MC cells, was performed (Lovenberg, T. W. et al. J. Pharmacol. Exp. Ther. 2000, 293, 771-778). Briefly, cell pellets from SK-N-MC cells expressing the human H3 receptor were homogenized in 50 mM Tris-HCl/5 mM EDTA and re-centrifuged at 30,000 g for 30 min. Pellets were re-homogenized in 50 mM Tris/5 mM EDTA (pH 7.4). Membranes were incubated with 0.8 nM N—[^3H]-α-methylhistamine plus/minus test compounds for 60 min at 25° C. and harvested by rapid filtration over GF/C glass fiber filters (pretreated with 0.3% polyethylenimine) followed by four washes with ice-cold buffer. Nonspecific binding was defined in the presence of 10 μM histamine.

The next assay concerns the target T3, human SERT (Homo sapiens, UniProt P31645).
T3 construct: expressed in transfected cells; host or cells: HEK293
The experiment in a line: Human SERT binding (3H-citalopram displacement, HEK293 membranes). Conditions: 3H-citalopram 3.1 nM, rt for 1 h. The method, then:
Homogenized HEK293 (Human Embryonic Kidney) membranes expressing the human SERT were incubated with ^3H-citalopram (SERT) at rt for 1 h in 50 mM Tris, 120 mM NaCl, 5 mM KCl (pH 7.4). Nonspecific binding was determined in the presence of 10 μM fluoxetine for the SERT. The membranes were washed and the radioactivity was counted as above. Calculations for Ki at the SERT were based on a Kd value for ^3H-citalopram and a ligand concentration of 3.1 nM.

Assay [2] addresses T2, human H3 receptor. The experiment in a line: Cyclic AMP accumulation (β-galactosidase reporter in SK-N-MC cells). It counts as cell-based. As to conditions: read-out: pA2 (converted). The method, then:
Sublines of SK-N-MC cells were created that expressed a reporter construct and the human H3 receptor. The reporter gene (β-galactosidase) is under the control of multiple cyclic AMP responsive elements. In 96-well plates, histamine was added directly to the cell media followed 5 min later by an addition of forskolin (5 μM final concentration). When appropriate, antagonists were added 10 min prior to agonist addition. After a 6-h incubation at 37° C., the media was aspirated and the cells washed with 200 μL of phosphate-buffered saline followed by a second aspiration. Cells were lysed with 25 μL 0.1× assay buffer (10 mM Na-phosphate, pH 8, 0.2 mM MgSO4, 0.01 mM MnCl2) and incubated at rt for 10 min. Cells were then incubated for 10 min with 100 μL of 1× assay buffer containing 0.5% Triton and 40 mM β-mercaptoethanol. Color was developed using 25 μL of 1 mg/mL substrate solution (chlorophenolred β-D galactopyranoside; Roche Molecular Biochemicals, Indianapolis, Ind.). Color was quantitated on a microplate reader at absorbance 570 nm. The pA2 values were calculated by Schild regression analysis of the pEC50 values.

Structures are written as SMILES.

T3 sequence (P31645 whole entry): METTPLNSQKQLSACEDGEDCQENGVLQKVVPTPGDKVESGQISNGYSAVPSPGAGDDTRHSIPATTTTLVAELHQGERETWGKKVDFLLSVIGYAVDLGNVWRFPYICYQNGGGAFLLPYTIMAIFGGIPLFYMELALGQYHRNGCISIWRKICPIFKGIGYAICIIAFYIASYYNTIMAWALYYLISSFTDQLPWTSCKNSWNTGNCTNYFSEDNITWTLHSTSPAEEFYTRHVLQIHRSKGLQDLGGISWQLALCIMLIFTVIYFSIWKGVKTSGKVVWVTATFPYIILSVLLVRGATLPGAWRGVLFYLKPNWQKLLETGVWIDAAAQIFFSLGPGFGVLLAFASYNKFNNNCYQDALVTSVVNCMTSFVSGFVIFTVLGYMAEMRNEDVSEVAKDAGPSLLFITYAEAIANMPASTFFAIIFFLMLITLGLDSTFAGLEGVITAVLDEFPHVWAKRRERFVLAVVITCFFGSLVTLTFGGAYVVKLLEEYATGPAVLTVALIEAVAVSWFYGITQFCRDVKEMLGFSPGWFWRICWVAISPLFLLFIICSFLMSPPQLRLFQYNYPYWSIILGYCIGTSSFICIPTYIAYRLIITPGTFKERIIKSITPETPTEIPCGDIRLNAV
T2 sequence (Q9Y5N1 whole entry): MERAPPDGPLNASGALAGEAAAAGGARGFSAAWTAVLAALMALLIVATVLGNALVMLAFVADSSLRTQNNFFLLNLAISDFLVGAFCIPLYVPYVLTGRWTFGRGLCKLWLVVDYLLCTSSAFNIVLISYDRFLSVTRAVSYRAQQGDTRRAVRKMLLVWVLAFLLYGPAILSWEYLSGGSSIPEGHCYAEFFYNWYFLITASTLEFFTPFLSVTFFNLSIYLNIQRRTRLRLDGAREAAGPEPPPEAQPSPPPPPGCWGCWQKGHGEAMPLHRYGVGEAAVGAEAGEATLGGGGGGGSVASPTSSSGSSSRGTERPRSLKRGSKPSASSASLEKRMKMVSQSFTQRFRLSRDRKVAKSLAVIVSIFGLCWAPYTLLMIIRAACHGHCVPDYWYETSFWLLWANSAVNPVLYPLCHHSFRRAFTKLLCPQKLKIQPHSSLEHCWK
T1 sequence (P31652 whole entry): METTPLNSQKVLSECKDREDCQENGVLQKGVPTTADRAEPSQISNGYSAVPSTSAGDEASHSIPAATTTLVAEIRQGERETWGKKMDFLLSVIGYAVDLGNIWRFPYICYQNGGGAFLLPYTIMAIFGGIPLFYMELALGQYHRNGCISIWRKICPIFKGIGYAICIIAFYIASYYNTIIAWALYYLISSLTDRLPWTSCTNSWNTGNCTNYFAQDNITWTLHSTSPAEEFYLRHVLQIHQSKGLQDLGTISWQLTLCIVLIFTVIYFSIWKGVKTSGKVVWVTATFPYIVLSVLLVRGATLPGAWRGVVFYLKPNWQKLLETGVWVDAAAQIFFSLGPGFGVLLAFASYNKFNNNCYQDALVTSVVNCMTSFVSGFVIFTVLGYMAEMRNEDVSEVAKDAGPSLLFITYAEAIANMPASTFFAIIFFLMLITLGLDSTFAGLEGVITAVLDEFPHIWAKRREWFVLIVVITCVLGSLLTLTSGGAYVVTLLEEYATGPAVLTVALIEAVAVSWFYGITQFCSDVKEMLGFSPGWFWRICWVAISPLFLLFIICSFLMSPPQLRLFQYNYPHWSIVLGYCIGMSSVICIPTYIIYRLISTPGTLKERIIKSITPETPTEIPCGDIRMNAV

`CN(C)CCC(Oc1ccc(Cl)cc1)c1ccc(OCCCN2CCCCC2)cc1` (centres unmarked) [Example 8, {3-(4-Chloro-phenoxy)-3-[4-(3-piperidin-1-yl-propoxy)-phenyl]-propyl}-dimethyl-amine]: the values for the Ki on Rat SERT, at human H3 receptor [1] and at human SERT were 2 nM, 1.7 nM and 16 nM, respectively.

On to `CN(C)CCC(Oc1ccc(F)cc1)c1ccc(OCCCN2CCCCC2)cc1` (centres unmarked) [Example 10, {3-(4-Fluoro-phenoxy)-3-[4-(3-piperidin-1-yl-propoxy)-phenyl]-propyl}-dimethyl-amine], for which the Ki (in general, the dissociation constant of the complex between target and ligand, obtained from inhibition or displacement) on Rat SERT came to 1.3 nM; on human H3 receptor [1], 1 nM; at human SERT, 46 nM.

Take `CN(C)CCC(Oc1ccc(Br)cc1)c1ccc(OCCCN2CCCCC2)cc1` (centres unmarked) [Example 11, {3-(4-Bromo-phenoxy)-3-[4-(3-piperidin-1-yl-propoxy)-phenyl]-propyl}-dimethyl-amine]: the Ki at Rat SERT stood at 5 nM; at human H3 receptor [1], 1.7 nM; on human SERT, 7 nM.

On to `CN(C)CCC(Oc1ccc([N+](=O)[O-])cc1)c1ccc(OCCCN2CCCCC2)cc1` (centres unmarked) [Example 12, Dimethyl-{3-(4-nitro-phenoxy)-3-[4-(3-piperidin-1-yl-propoxy)phenyl]-propyl}-amine], for which the Ki on Rat SERT was found to be 4 nM; on human H3 receptor [1], 0.9 nM; at human SERT, 9 nM.

In the case of `CN(C)CCC(Oc1ccc(Cl)cc1Cl)c1ccc(OCCCN2CCCCC2)cc1` (centres unmarked) [Example 16, {3-(2,4-Dichloro-phenoxy)-3-[4-(3-piperidin-1-yl-propoxy)-phenyl]-propyl}-dimethyl-amine], the Ki worked out at 7 nM at Rat SERT, 0.9 nM at human H3 receptor [1] and 10 nM at human SERT.

As to `CN(C)CCC(Oc1ccccc1Cl)c1ccc(OCCCN2CCCCC2)cc1` (centres unmarked) [Example 17, {3-(2-Chloro-phenoxy)-3-[4-(3-piperidin-1-yl-propoxy)-phenyl]-propyl}-dimethyl-amine], the Ki at Rat SERT worked out at 8 nM; at human H3 receptor [1], 0.9 nM; on human SERT, 21 nM.

On to `CN(C)CCC(Oc1ccc2[nH]ccc2c1)c1ccc(OCCCN2CCCCC2)cc1` (centres unmarked) [Example 19, {3-(1H-Indol-5-yloxy)-3-[4-(3-piperidin-1-yl-propoxy)-phenyl]-propyl}-dimethyl-amine], for which the Kb at human H3 receptor [2] is 0.977 nM. Further, the Ki on Rat SERT was 44 nM; at human H3 receptor [1], 1 nM.

In the case of `CC(C)N1CCN(CCC#Cc2ccc(C(CCN(C)C)Oc3ccccc3)cc2)CC1` (centres unmarked) [Example 22, (3-{4-[4-(4-Isopropyl-piperazin-1-yl)-but-1-ynyl]-phenyl}-3-phenoxy-propyl)-dimethyl-amine], the Ki on Rat SERT is 6 nM; at human H3 receptor [1] it was 49 nM; at human SERT, 22 nM.

As for `CN(C)CCC(Oc1ccccc1)c1ccc(C#CCCN2CCOCC2)cc1` (centres unmarked) [Example 23, Dimethyl-{3-[4-(4-morpholin-4-yl-but-1-ynyl)-phenyl]-3-phenoxy-propyl}-amine], the inhibition constant (Ki) was found to be 13 nM at Rat SERT, 19 nM on human H3 receptor [1] and 37 nM at human SERT.

For the molecule `CN(C)CCC(Oc1ccccc1)c1ccc(C#CCCN2CCSCC2)cc1` (centres unmarked) [Example 24, Dimethyl-{3-phenoxy-3-[4-(4-thiomorpholin-4-yl-but-1-ynyl)phenyl]-propyl}-amine], the figures for the Ki at Rat SERT, on human H3 receptor [1] and on human SERT were 18 nM, 11 nM and 34 nM, respectively.

As to `CN(C)CCC(Oc1ccccc1)c1cccc(C#CCCN2CCCCC2)c1` (centres unmarked) [Example 31, Dimethyl-{3-phenoxy-3-[3-(4-piperidin-1-yl-but-1-ynyl)-phenyl]-propyl}-amine], the Ki was 16 nM at Rat SERT, 2 nM at human H3 receptor [1] and 154 nM on human SERT.

Take `CN(C)CCC(Oc1ccc(C(F)(F)F)cc1)c1ccc(CCCCN2CCCCC2)cc1` (centres unmarked) [Example 33, Dimethyl-[3-[4-(4-piperidin-1-yl-butyl)-phenyl]-3-(4-trifluoromethylphenoxy)-propyl]-amine]: the Ki on Rat SERT came to 3 nM; on human H3 receptor [1], 23 nM; at human SERT, 5 nM.

As to `CC(C)N1CCN(CCCCc2ccc(C(CCN(C)C)Oc3ccc(C(F)(F)F)cc3)cc2)CC1` (centres unmarked) [Example 34, [3-[4-[4-(4-Isopropyl-piperazin-1-yl)-butyl]-phenyl]-3-(4-trifluoromethyl-phenoxy)-propyl]-dimethyl-amine], the Ki at Rat SERT was determined as 7 nM; on human H3 receptor [1], 12 nM; at human SERT, 10 nM.

As to `CN(C)CCC(Oc1ccc(C(F)(F)F)cc1)c1ccc(CCCCN2CCOCC2)cc1` (centres unmarked) [Example 35, Dimethyl-[3-[4-(4-morpholin-4-yl-butyl)-phenyl]-3-(4-trifluoromethyl-phenoxy)-propyl]-amine], the Ki came out at 10 nM at Rat SERT, 32 nM on human H3 receptor [1] and 6 nM at human SERT.

On to `CN(C)CCC(Oc1cccc(OCCCN2CCCCC2)c1)c1ccccc1` (centres unmarked) [Example 37, Dimethyl-{3-phenyl-3-[3-(3-piperidin-1-yl-propoxy)-phenoxy]-propyl}-amine], for which the values for the Ki on Rat SERT, at human H3 receptor [1] and at human SERT were 65 nM, 0.7 nM and 1330 nM, respectively.

With `CC(C)N1CCN(C(=O)c2ccc(C(CCN(C)C)Oc3ccc(C(F)(F)F)cc3)cc2)CC1` (centres unmarked) [Example 39, {4-[3-Dimethylamino-1-(4-trifluoromethyl-phenoxy)-propyl]-phenyl}-(4-isopropyl-piperazin-1-yl)-methanone], the Kb at human H3 receptor [2] was 0.933 nM. Besides, the affinity on human H3 receptor [1] corresponds to a Ki of 2 nM.

Consider `CC(C)N1CCC(Oc2ccc(OC(CCN(C)C)c3ccc(C(F)(F)F)cc3)cc2)CC1` (centres unmarked) [Example 45, [3-[4-(1-Isopropyl-piperidin-4-yloxy)-phenoxy]-3-(4-trifluoromethylphenyl)-propyl]-dimethyl-amine], for which the Kb at human H3 receptor [2] is 1.48 nM. The Ki turned out to be 65 nM at Rat SERT and 2 nM on human H3 receptor [1].

Regarding `CN(C)CCC(Oc1ccc(C(F)(F)F)cc1)c1ccc(C(=O)N2CCN(C3CCCC3)CC2)cc1` (centres unmarked) [Example 50, (4-Cyclopentyl-piperazin-1-yl)-{4-[3-dimethylamino-1-(4-trifluoromethyl-phenoxy)-propyl]-phenyl}-methanone], the Kb at human H3 receptor [2] was 1.48 nM. In addition, the values for the Ki on Rat SERT and at human H3 receptor [1] were 53 nM and 3 nM, respectively.

Regarding `CN(C)CCC(Oc1ccc(C(F)(F)F)cc1)c1ccc(CN2CCN(C3CCCC3)CC2)cc1` (centres unmarked) [Example 51, [3-[4-(4-Cyclopentyl-piperazin-1-ylmethyl)-phenyl]-3-(4-trifluoromethyl-phenoxy)-propyl]-dimethyl-amine], the Kb on human H3 receptor [2] is 11.2 nM. For the same molecule, the Ki on Rat SERT was 30 nM; on human H3 receptor [1] it was 7 nM.

For `NCCC(Oc1ccccc1)c1ccc(OCCCN2CCCCC2)cc1` (centres unmarked) [Example 68, 3-Phenoxy-3-[4-(3-piperidin-1-yl-propoxy)-phenyl]-propylamine], the Ki turned out to be 7 nM on Rat SERT, 0.8 nM at human H3 receptor [1] and 21 nM at human SERT.

Consider `CNCCC(Oc1ccccc1)c1ccc(OCCCN2CCCCC2)cc1` (centres unmarked) [Example 72, Methyl-{3-phenoxy-3-[4-(3-piperidin-1-yl-propoxy)-phenyl]-propyl}-amine], for which the Ki was found to be 5 nM at Rat SERT, 0.9 nM at human H3 receptor [1] and 25 nM at human SERT.

Take `c1ccc(OC(CCN2CCCC2)c2ccc(OCCCN3CCCCC3)cc2)cc1` (centres unmarked) [Example 73, 1-{3-[4-(1-Phenoxy-3-pyrrolidin-1-yl-propyl)-phenoxy]-propyl}-piperidine]: the Ki on Rat SERT was found to be 633 nM; at human H3 receptor [1], 0.2 nM; on human SERT, 4000 nM.
